Source: PubChem BioAssay AID1918943 (Molecular Pharmacology Branch, DTP, NCI, 2023)
pIC50: −log10 of the molar value. Several values for one entry are separate records, joined by “and”; a condition that tells them apart may be missing. Equal entries are not always repeated.

Tested on: 855422-203-R-J1-PDC complex spheroid viability
Assay: Anticancer human tumor 855422-203-R-J1-PDC patient-derived bladder carcinoma cell line growth inhibition
Details: for viability, T/C: stronger effect = lower value
How it was run: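 Complex spheroids of tumor cells with HUVEC and human MSCs, exposed to iadademstat combined with other agents. Each agent tested in half-log steps from near clinical Cmax (else 10 microM top), DMSO ≤0.25%.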

[1] = curve of first compound, second compound 0.1 µM
[2] = curve of first compound, second compound 0.316 µM
[3] = curve of first compound, second compound 1 µM
[4] = curve of first compound, second compound 3.16 µM
[5] = curve of first compound, second compound 10 µM
[6] = second compound 0.1 µM, first compound 0.00949 µM
[7] = second compound 0.1 µM, first compound 0.03 µM
[8] = second compound 0.1 µM, first compound 0.0949 µM
[9] = second compound 0.1 µM, first compound 0.3 µM
[10] = second compound 0.1 µM, first compound 0.949 µM
[11] = second compound 0.1 µM, first compound 3 µM
[12] = second compound 0.316 µM, first compound 0.00949 µM
[13] = second compound 0.316 µM, first compound 0.03 µM
[14] = second compound 0.316 µM, first compound 0.0949 µM
[15] = second compound 0.316 µM, first compound 0.3 µM
[16] = second compound 0.316 µM, first compound 0.949 µM
[17] = second compound 0.316 µM, first compound 3 µM
[18] = second compound 1 µM, first compound 0.00949 µM
[19] = second compound 1 µM, first compound 0.03 µM
[20] = second compound 1 µM, first compound 0.0949 µM
[21] = second compound 1 µM, first compound 0.3 µM
[22] = second compound 1 µM, first compound 0.949 µM
[23] = second compound 1 µM, first compound 3 µM
[24] = second compound 3.16 µM, first compound 0.00949 µM
[25] = second compound 3.16 µM, first compound 0.03 µM
[26] = second compound 3.16 µM, first compound 0.0949 µM
[27] = second compound 3.16 µM, first compound 0.3 µM
[28] = second compound 3.16 µM, first compound 0.949 µM
[29] = second compound 3.16 µM, first compound 3 µM
[30] = second compound 10 µM, first compound 0.00949 µM
[31] = second compound 10 µM, first compound 0.03 µM
[32] = second compound 10 µM, first compound 0.0949 µM
[33] = second compound 10 µM, first compound 0.3 µM
[34] = second compound 10 µM, first compound 0.949 µM
[35] = second compound 10 µM, first compound 3 µM
[36] = second compound 0.1 µM, first compound 0.00316 µM
[37] = second compound 0.1 µM, first compound 0.01 µM
[38] = second compound 0.1 µM, first compound 0.0316 µM
[39] = second compound 0.1 µM, first compound 0.1 µM
[40] = second compound 0.1 µM, first compound 0.316 µM
[41] = second compound 0.1 µM, first compound 1 µM
[42] = second compound 0.316 µM, first compound 0.00316 µM
[43] = second compound 0.316 µM, first compound 0.01 µM
[44] = second compound 0.316 µM, first compound 0.0316 µM
[45] = second compound 0.316 µM, first compound 0.1 µM
[46] = second compound 0.316 µM, first compound 0.316 µM
[47] = second compound 0.316 µM, first compound 1 µM
[48] = second compound 1 µM, first compound 0.00316 µM
[49] = second compound 1 µM, first compound 0.01 µM
[50] = second compound 1 µM, first compound 0.0316 µM
[51] = second compound 1 µM, first compound 0.1 µM
[52] = second compound 1 µM, first compound 0.316 µM
[53] = second compound 1 µM, first compound 1 µM
[54] = second compound 3.16 µM, first compound 0.00316 µM
[55] = second compound 3.16 µM, first compound 0.01 µM
[56] = second compound 3.16 µM, first compound 0.0316 µM
[57] = second compound 3.16 µM, first compound 0.1 µM
[58] = second compound 3.16 µM, first compound 0.316 µM
[59] = second compound 3.16 µM, first compound 1 µM
[60] = second compound 10 µM, first compound 0.00316 µM
[61] = second compound 10 µM, first compound 0.01 µM
[62] = second compound 10 µM, first compound 0.0316 µM
[63] = second compound 10 µM, first compound 0.1 µM
[64] = second compound 10 µM, first compound 0.316 µM
[65] = second compound 10 µM, first compound 1 µM
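Note: drug exposure lasted 7 days starting on day 3 after seeding.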
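Throughout, for viability, T/C: luminescence viability as percent of DMSO vehicle wells = 100%.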

COc1cc(C2c3cc4c(cc3C(OC3OC5COC(C)OC5C(O)C3O)C3COC(=O)C23)OCO4)cc(OC)c1O (configuration not stated) + NC1CC1c1ccc(-c2cccc(O)c2)cc1
pIC50 [1]: 6.83 | pIC50 [2]: 6.81 | pIC50 [3]: 6.89 | pIC50 [4]: 6.92 | pIC50 [5]: 7.04 | viability, T/C [6]: 96.3% | viability, T/C [7]: 98.3% | viability, T/C [8]: 59.5% | viability, T/C [9]: 31.1% | viability, T/C [10]: 19.7% | viability, T/C [11]: 10.7% | viability, T/C [12]: 101% | viability, T/C [13]: 102% | viability, T/C [14]: 60.9% | viability, T/C [15]: 32.6% | viability, T/C [16]: 19.7% | viability, T/C [17]: 11.6% | viability, T/C [18]: 91.6% | viability, T/C [19]: 95.8% | viability, T/C [20]: 55.4% | viability, T/C [21]: 28.9% | viability, T/C [22]: 17.6% | viability, T/C [23]: 10.9% | viability, T/C [24]: 100% | viability, T/C [25]: 96.9% | viability, T/C [26]: 52.3% | viability, T/C [27]: 27.9% | viability, T/C [28]: 16.2% | viability, T/C [29]: 8.34% | viability, T/C [30]: 99.5% | viability, T/C [31]: 97% | viability, T/C [32]: 46.5% | viability, T/C [33]: 26.6% | viability, T/C [34]: 18.4% | viability, T/C [35]: 9.12%

O=C(C=Cc1cccc(S(=O)(=O)Nc2ccccc2)c1)NO + NC1CCC(NC2CC2c2ccccc2)CC1
pIC50 [1]: 6.34 | pIC50 [2]: 6.33 | pIC50 [3]: 6.53 | pIC50 [4]: 6.46 | pIC50 [5]: 6.45 | viability, T/C [6]: 88.3% | viability, T/C [7]: 88.7% | viability, T/C [8]: 91.3% | viability, T/C [9]: 68.9% | viability, T/C [10]: 15.2% | viability, T/C [11]: 0.2% | viability, T/C [12]: 96.1% | viability, T/C [13]: 88.6% | viability, T/C [14]: 80.7% | viability, T/C [15]: 71.8% | viability, T/C [16]: 17.4% | viability, T/C [17]: 0.2% | viability, T/C [18]: 98% | viability, T/C [19]: 90.1% | viability, T/C [20]: 67.7% | viability, T/C [21]: 59.2% | viability, T/C [22]: 13.4% | viability, T/C [23]: 0.17% | viability, T/C [24]: 94% | viability, T/C [25]: 92% | viability, T/C [26]: 81.6% | viability, T/C [27]: 57.4% | viability, T/C [28]: 7.23% | viability, T/C [29]: 0.14% | viability, T/C [30]: 90.8% | viability, T/C [31]: 82.7% | viability, T/C [32]: 78.9% | viability, T/C [33]: 58.5% | viability, T/C [34]: 5.21% | viability, T/C [35]: 0.59%

Nc1ncn(C2CC(O)C(CO)O2)c(=O)n1 (configuration not stated) + NC1CCC(NC2CC2c2ccccc2)CC1
pIC50 [1]: < 6.00 | pIC50 [2]: < 6.00 | pIC50 [3]: < 6.00 | pIC50 [4]: < 6.00 | pIC50 [5]: < 6.00 | viability, T/C [36]: 91.5% | viability, T/C [37]: 91.2% | viability, T/C [38]: 95.6% | viability, T/C [39]: 85.5% | viability, T/C [40]: 83.1% | viability, T/C [41]: 85.2% | viability, T/C [42]: 93.6% | viability, T/C [43]: 93.1% | viability, T/C [44]: 90.2% | viability, T/C [45]: 92.2% | viability, T/C [46]: 83% | viability, T/C [47]: 84.7% | viability, T/C [48]: 88.6% | viability, T/C [49]: 94.5% | viability, T/C [50]: 93.6% | viability, T/C [51]: 86.4% | viability, T/C [52]: 90.1% | viability, T/C [53]: 85.3% | viability, T/C [54]: 87.5% | viability, T/C [55]: 81.1% | viability, T/C [56]: 79.7% | viability, T/C [57]: 91.4% | viability, T/C [58]: 85.9% | viability, T/C [59]: 88.9% | viability, T/C [60]: 84.3% | viability, T/C [61]: 86.9% | viability, T/C [62]: 85.3% | viability, T/C [63]: 88.4% | viability, T/C [64]: 88.2% | viability, T/C [65]: 80.5%

COc1cc(Nc2ncc3c(n2)-c2ccc(Cl)cc2C(c2c(F)cccc2OC)=NC3)ccc1C(=O)O + NC1CC1c1ccc(-c2cccc(O)c2)cc1
pIC50 [1]: 6.17 | pIC50 [2]: 6.55 | pIC50 [3]: 7.05 | pIC50 [4]: 6.56 | pIC50 [5]: 6.87 | viability, T/C [36]: 96.4% | viability, T/C [37]: 103% | viability, T/C [38]: 84% | viability, T/C [39]: 68.6% | viability, T/C [40]: 56.2% | viability, T/C [41]: 46.5% | viability, T/C [42]: 96.9% | viability, T/C [43]: 96.4% | viability, T/C [44]: 71% | viability, T/C [45]: 61.2% | viability, T/C [46]: 49.9% | viability, T/C [47]: 44.4% | viability, T/C [48]: 82.5% | viability, T/C [49]: 93.4% | viability, T/C [50]: 69.5% | viability, T/C [51]: 51.8% | viability, T/C [52]: 45.8% | viability, T/C [53]: 46.1% | viability, T/C [54]: 88.3% | viability, T/C [55]: 95.5% | viability, T/C [56]: 69.9% | viability, T/C [57]: 61.4% | viability, T/C [58]: 50% | viability, T/C [59]: 43.4% | viability, T/C [60]: 85.7% | viability, T/C [61]: 94.1% | viability, T/C [62]: 63.1% | viability, T/C [63]: 56.8% | viability, T/C [64]: 44.2% | viability, T/C [65]: 39.5%

CC[C@@]1(O)C(=O)OCc2c1cc1n(c2=O)Cc2cc3c(CN(C)C)c(O)ccc3nc2-1 + NC1CC1c1ccc(-c2cccc(O)c2)cc1
pIC50 [1]: 8.07 | pIC50 [2]: 8.10 | pIC50 [3]: 8.11 | pIC50 [4]: 8.16 | pIC50 [5]: 8.20 | viability, T/C (second compound 0.1 µM, first compound 0.000316 µM): 97.8% | viability, T/C (second compound 0.1 µM, first compound 0.001 µM): 102% | viability, T/C [36]: 98.1% | viability, T/C [37]: 42.7% | viability, T/C [38]: 21.8% | viability, T/C [39]: 19.4% | viability, T/C (second compound 0.316 µM, first compound 0.000316 µM): 98.9% | viability, T/C (second compound 0.316 µM, first compound 0.001 µM): 102% | viability, T/C [42]: 92.8% | viability, T/C [43]: 39.1% | viability, T/C [44]: 22.8% | viability, T/C [45]: 19.4% | viability, T/C (second compound 1 µM, first compound 0.000316 µM): 90.5% | viability, T/C (second compound 1 µM, first compound 0.001 µM): 94.6% | viability, T/C [48]: 84.8% | viability, T/C [49]: 40.5% | viability, T/C [50]: 22.8% | viability, T/C [51]: 18.8% | viability, T/C (second compound 3.16 µM, first compound 0.000316 µM): 85.7% | viability, T/C (second compound 3.16 µM, first compound 0.001 µM): 90.3% | viability, T/C [54]: 87.2% | viability, T/C [55]: 31.8% | viability, T/C [56]: 20.9% | viability, T/C [57]: 18.6% | viability, T/C (second compound 10 µM, first compound 0.000316 µM): 81.5% | viability, T/C (second compound 10 µM, first compound 0.001 µM): 97.3% | viability, T/C [60]: 82.2% | viability, T/C [61]: 28.9% | viability, T/C [62]: 21.5% | viability, T/C [63]: 16.3%

Nc1ccccc1NC(=O)c1ccc(CNC(=O)OCc2cccnc2)cc1
viability, T/C (compound 0.00949 µM): 92.6% and 94.4% | viability, T/C (compound 0.03 µM): 100% and 97% | viability, T/C (compound 0.0949 µM): 106% and 105% | viability, T/C (compound 0.3 µM): 90.8% and 101% | viability, T/C (compound 0.949 µM): 75.4% and 64% | viability, T/C (compound 3 µM): 13.4% and 13.2% | pIC50 (curve of compound): 5.82 and 5.89
